Reference: article PMC9014845 (Clinical cancer research : an official journal of the …, 2019)
Entries after “also recorded” stand apart in the source; their conditions may differ.

Test system: patients with advanced solid tumors harboring FGFR1–3 gene alterations
Test: Phase I dose-escalation: safety/tolerability
Assay type: in vivo, human
Details: for Any TEAE / Any TEAE leading to discontinuation / Any TEAE leading to dose reduction / Any TEAE leading to treatment interruption / Serious TEAE / TEAE: ALT increased / TEAE: AST increased / TEAE: Abdominal pain / TEAE: Alopecia / TEAE: Anemia / TEAE: Back pain / TEAE: Blurred vision / TEAE: Constipation / TEAE: Creatinine increased (in blood) / TEAE: Decreased appetite / TEAE: Diarrhea / TEAE: Dry eye / TEAE: Dry mouth / TEAE: Dry skin / TEAE: Dysgeusia / TEAE: Dyspnea / TEAE: Edema peripheral / TEAE: Fatigue / TEAE: Hyperphosphatemia / TEAE: Hypertension / TEAE: Hypokalemia / TEAE: Hypomagnesemia / TEAE: Mucosal inflammation / TEAE: Myalgia / TEAE: Nail changes / TEAE: Nausea / TEAE: Stomatitis / TEAE: Vomiting: all grades

Substance: Debio 1347
- DLT observed (60 mg): grade-2 dry mouth and eyes
- Any TEAE (60 mg (n=10)): 10 (100) Number (%) of patients
- Any TEAE leading to discontinuation (60 mg (n=10)): 1 (10) Number (%) of patients
- Any TEAE leading to dose reduction (60 mg (n=10)): 2 (20) Number (%) of patients
- Any TEAE leading to treatment interruption (60 mg (n=10)): 6 (60) Number (%) of patients
- Serious TEAE (60 mg (n=10)): 2 (20) Number (%) of patients
- TEAE: ALT increased (60 mg (n=10)): 1 (10) Number (%) of patients
- TEAE: AST increased (60 mg (n=10)): 2 (20) Number (%) of patients
- TEAE: Abdominal pain (60 mg (n=10)): 3 (30) Number (%) of patients
- TEAE: Alopecia (60 mg (n=10)): 1 (10) Number (%) of patients
- TEAE: Anemia (60 mg (n=10)): 4 (40) Number (%) of patients
- TEAE: Back pain (60 mg (n=10)): 0 Number (%) of patients
- TEAE: Blurred vision (60 mg (n=10)): 1 (10) Number (%) of patients
- TEAE: Constipation (60 mg (n=10)): 2 (20) Number (%) of patients
- TEAE: Creatinine increased (in blood) (60 mg (n=10)): 2 (20) Number (%) of patients
- TEAE: Decreased appetite (60 mg (n=10)): 3 (30) Number (%) of patients
- TEAE: Diarrhea (60 mg (n=10)): 7 (70) Number (%) of patients
- TEAE: Dry eye (60 mg (n=10)): 2 (20) Number (%) of patients
- TEAE: Dry mouth (60 mg (n=10)): 4 (40) Number (%) of patients
- TEAE: Dry skin (60 mg (n=10)): 0 Number (%) of patients
- TEAE: Dysgeusia (60 mg (n=10)): 1 (10) Number (%) of patients
- TEAE: Dyspnea (60 mg (n=10)): 3 (30) Number (%) of patients
- TEAE: Edema peripheral (60 mg (n=10)): 1 (10) Number (%) of patients
- TEAE: Fatigue (60 mg (n=10)): 5 (50) Number (%) of patients
- TEAE: Hyperphosphatemia (60 mg (n=10)): 9 (90) Number (%) of patients
- TEAE: Hypertension (60 mg (n=10)): 1 (10) Number (%) of patients
- TEAE: Hypokalemia (60 mg (n=10)): 0 Number (%) of patients
- TEAE: Hypomagnesemia (60 mg (n=10)): 2 (20) Number (%) of patients
- TEAE: Mucosal inflammation (60 mg (n=10)): 1 (10) Number (%) of patients
- TEAE: Myalgia (60 mg (n=10)): 1 (10) Number (%) of patients
- TEAE: Nail changes (60 mg (n=10)): 2 (20) Number (%) of patients
- TEAE: Nausea (60 mg (n=10)): 3 (30) Number (%) of patients
- TEAE: Stomatitis (60 mg (n=10)): 1 (10) Number (%) of patients
- TEAE: Vomiting (60 mg (n=10)): 2 (20) Number (%) of patients
- DLT observed (80 mg): hyperamylasemia; also recorded: grade-3 asymptomatic hypercalcemia
- Any TEAE (80 mg (n=10)): 10(100%) Number (%) of patients
- Any TEAE leading to discontinuation (80 mg (n=10)): 3 (30) Number (%) of patients
- Any TEAE leading to dose reduction (80 mg (n=10)): 2 (20) Number (%) of patients
- Any TEAE leading to treatment interruption (80 mg (n=10)): 5 (50) Number (%) of patients
- Serious TEAE (80 mg (n=10)): 3 (30) Number (%) of patients
- TEAE: ALT increased (80 mg (n=10)): 1 (10) Number (%) of patients
- TEAE: AST increased (80 mg (n=10)): 1 (10) Number (%) of patients
- TEAE: Abdominal pain (80 mg (n=10)): 3 (30) Number (%) of patients
- TEAE: Alopecia (80 mg (n=10)): 1 (10) Number (%) of patients
- TEAE: Anemia (80 mg (n=10)): 2 (20) Number (%) of patients
- TEAE: Back pain (80 mg (n=10)): 0 Number (%) of patients
- TEAE: Blurred vision (80 mg (n=10)): 2 (20) Number (%) of patients
- TEAE: Constipation (80 mg (n=10)): 3 (30) Number (%) of patients
- TEAE: Creatinine increased (in blood) (80 mg (n=10)): 2 (20) Number (%) of patients
- TEAE: Decreased appetite (80 mg (n=10)): 5 (50) Number (%) of patients
- TEAE: Diarrhea (80 mg (n=10)): 5 (50) Number (%) of patients
- TEAE: Dry eye (80 mg (n=10)): 0 Number (%) of patients
- TEAE: Dry mouth (80 mg (n=10)): 5 (50) Number (%) of patients
- TEAE: Dry skin (80 mg (n=10)): 2 (20) Number (%) of patients
- TEAE: Dysgeusia (80 mg (n=10)): 2 (20) Number (%) of patients
- TEAE: Dyspnea (80 mg (n=10)): 1 (10) Number (%) of patients
- TEAE: Edema peripheral (80 mg (n=10)): 2 (20) Number (%) of patients
- TEAE: Fatigue (80 mg (n=10)): 5 (50) Number (%) of patients
- TEAE: Hyperphosphatemia (80 mg (n=10)): 9 (90) Number (%) of patients
- TEAE: Hypertension (80 mg (n=10)): 0 Number (%) of patients
- TEAE: Hypokalemia (80 mg (n=10)): 2 (20) Number (%) of patients
- TEAE: Hypomagnesemia (80 mg (n=10)): 1 (10) Number (%) of patients
- TEAE: Mucosal inflammation (80 mg (n=10)): 3 (30) Number (%) of patients
- TEAE: Myalgia (80 mg (n=10)): 3 (30) Number (%) of patients
- TEAE: Nail changes (80 mg (n=10)): 3 (30) Number (%) of patients
- TEAE: Nausea (80 mg (n=10)): 3 (30) Number (%) of patients
- TEAE: Stomatitis (80 mg (n=10)): 3 (30) Number (%) of patients
- TEAE: Vomiting (80 mg (n=10)): 1 (10) Number (%) of patients
- DLT observed (110 mg): stomatitis; also recorded: grade-3 bilirubin increase and hyper-phosphatemia
- Any TEAE (110 mg (n=9)): 9 (100%) Number (%) of patients
- Any TEAE leading to discontinuation (110 mg (n=9)): 1 (11) Number (%) of patients
- Any TEAE leading to dose reduction (110 mg (n=9)): 7 (78) Number (%) of patients
- Any TEAE leading to treatment interruption (110 mg (n=9)): 8 (89) Number (%) of patients
- Serious TEAE (110 mg (n=9)): 4 (44) Number (%) of patients
- TEAE: ALT increased (110 mg (n=9)): 1 (11) Number (%) of patients
- TEAE: AST increased (110 mg (n=9)): 1 (11) Number (%) of patients
- TEAE: Abdominal pain (110 mg (n=9)): 2 (22) Number (%) of patients
- TEAE: Alopecia (110 mg (n=9)): 4 (44) Number (%) of patients
- TEAE: Anemia (110 mg (n=9)): 3 (33) Number (%) of patients
- TEAE: Back pain (110 mg (n=9)): 1 (11) Number (%) of patients
- TEAE: Blurred vision (110 mg (n=9)): 2 (22) Number (%) of patients
- TEAE: Constipation (110 mg (n=9)): 3 (33) Number (%) of patients
- TEAE: Creatinine increased (in blood) (110 mg (n=9)): 0 Number (%) of patients
- TEAE: Decreased appetite (110 mg (n=9)): 3 (33) Number (%) of patients
- TEAE: Diarrhea (110 mg (n=9)): 3 (33) Number (%) of patients
- TEAE: Dry eye (110 mg (n=9)): 4 (44) Number (%) of patients
- TEAE: Dry mouth (110 mg (n=9)): 4 (44) Number (%) of patients
- TEAE: Dry skin (110 mg (n=9)): 5 (55) Number (%) of patients
- TEAE: Dysgeusia (110 mg (n=9)): 4 (44) Number (%) of patients
- TEAE: Dyspnea (110 mg (n=9)): 3 (33) Number (%) of patients
- TEAE: Edema peripheral (110 mg (n=9)): 2 (22) Number (%) of patients
- TEAE: Fatigue (110 mg (n=9)): 5 (55) Number (%) of patients
- TEAE: Hyperphosphatemia (110 mg (n=9)): 9 (100) Number (%) of patients
- TEAE: Hypertension (110 mg (n=9)): 0 Number (%) of patients
- TEAE: Hypokalemia (110 mg (n=9)): 1 (11) Number (%) of patients
- TEAE: Hypomagnesemia (110 mg (n=9)): 0 Number (%) of patients
- TEAE: Mucosal inflammation (110 mg (n=9)): 2 (22) Number (%) of patients
- TEAE: Myalgia (110 mg (n=9)): 3 (33) Number (%) of patients
- TEAE: Nausea (110 mg (n=9)): 6 (67) Number (%) of patients
- TEAE: Stomatitis (110 mg (n=9)): 7 (78) Number (%) of patients
- TEAE: Vomiting (110 mg (n=9)): 3 (33) Number (%) of patients
- Any TEAE (150 mg (n=3)): 3 (100%) Number (%) of patients
- Any TEAE leading to discontinuation (150 mg (n=3)): 0 (0) Number (%) of patients
- Any TEAE leading to treatment interruption (150 mg (n=3)): 3 (100) Number (%) of patients
- Serious TEAE (150 mg (n=3)): 2 (67) Number (%) of patients
- TEAE: ALT increased (150 mg (n=3)): 0 Number (%) of patients
- TEAE: AST increased (150 mg (n=3)): 0 Number (%) of patients
- TEAE: Abdominal pain (150 mg (n=3)): 1 (33) Number (%) of patients
- TEAE: Alopecia (150 mg (n=3)): 2 (67) Number (%) of patients
- TEAE: Anemia (150 mg (n=3)): 0 Number (%) of patients
